In patent publication US10294202B2, “Pyrrolidinones as herbicides” (FMC Corporation, priority 2013, dated 2019):
Read-outs that look alike come from different tables or passages of the source.

How the values were obtained:
barnyardgrass [1] = test: Test A pre-/postemergence herbicide test; assay type: in vivo, Echinochloa crus-galli; settings: for pest or weed control at 125 g/ha / pest or weed control at 500 g/ha: Echinochloa crus-galli, 240 h, read-out: Plant response rating, Barnyardgrass; for pest or weed control at 125 g/ha / Barnyardgrass plant response rating: 125 g ai/ha; for pest or weed control at 125 g/ha: 0 to 100 scale, 0 no effect, 100 complete control; for pest or weed control at 500 g/ha: 500 g ai/ha, 0 to 100 scale (0 no effect, 100 complete control); for Barnyardgrass plant response rating: Preemergence, visual rating on 0 to 100 scale (0 no effect, 100 complete control)
Method in brief: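 Formulated compound (non-phytotoxic solvent, surfactant) sprayed pre- onto soil of seeded loam/sand pots or post- onto seedlings at 1–2 leaves; ~10 d greenhouse; 0–100 visual control rating versus untreated.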

sedge, umbrella = test: Test B flooded paddy test; assay type: in vivo, Cyperus difformis; settings: 250 g ai/ha, Flood; scale of 0 to 100 where 0 is no effect and 100 is complete control
Method in brief: (§1)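 2-leaf plants; flood 3 cm over soil; compound into paddy water; depth held. Greenhouse 13–15 d. Visual rating vs controls, 0 (no effect) to 100 (complete control); dash = not tested.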

barnyardgrass [2] = test: Test B flooded paddy test; assay type: in vivo, Echinochloa crus-galli; settings: 250 g ai/ha, Flood; scale of 0 to 100 where 0 is no effect and 100 is complete control
Method in brief: as §1

blackgrass = test: Test C pre-/postemergence herbicide test; assay type: in vivo, Alopecurus myosuroides; settings: for Blackgrass plant response rating: scale 0 to 100, 0 is no effect and 100 is complete control
Method in brief: (§2)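 Compound solutions contained surfactant in a non-phytotoxic solvent. These were sprayed onto pots of loam/sand sown with seeds, and onto young plants (2 to 18 cm, 1- to 4-leaf) in sphagnum peat–vermiculite mix. Visual injury scores (0 none, 100 complete control) were recorded after 13 to 15 days.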

wheat (winter wheat) = test: Test C pre-/postemergence herbicide test; assay type: in vivo, Triticum aestivum; settings: for Wheat plant response rating: scale 0 to 100, 0 is no effect and 100 is complete control
Method in brief: as §2

corn = test: Test C pre-/postemergence herbicide test; assay type: in vivo, Zea mays; settings: for Corn plant response rating: scale 0 to 100, 0 is no effect and 100 is complete control
Method in brief: as §2

crabgrass, large = test: Test C pre-/postemergence herbicide test; assay type: in vivo, Digitaria sanguinalis; settings: for Crabgrass, Large plant response rating: scale 0 to 100, 0 is no effect and 100 is complete control
Method in brief: as §2

lambsquarters = test: Test C pre-/postemergence herbicide test; assay type: in vivo, Chenopodium album; settings: for Lambsquarters plant response rating: scale 0 to 100, 0 is no effect and 100 is complete control
Method in brief: as §2

soybean = test: Test C pre-/postemergence herbicide test; assay type: in vivo, Glycine max; settings: for Soybean plant response rating: scale 0 to 100, 0 is no effect and 100 is complete control
Method in brief: as §2

oat, wild = test: Test C pre-/postemergence herbicide test; assay type: in vivo, Avena fatua; settings: Postemergence
Method in brief: as §2

velvetleaf = test: Test C pre-/postemergence herbicide test; assay type: in vivo, Abutilon theophrasti; settings: for Velvetleaf plant response rating: scale 0 to 100, 0 is no effect and 100 is complete control
Method in brief: as §2

[3] = Postemergence, 31 g ai/ha, scale 0 (no effect) to 100 (complete control)
[4] = Postemergence, 62 g ai/ha, scale 0 to 100 (0 no effect, 100 complete control)
[5] = Postemergence, 125 g ai/ha, scale 0 to 100 (0 no effect, 100 complete control)
[6] = Postemergence, 250 g ai/ha, scale 0 to 100 (0 no effect, 100 complete control)
[7] = Preemergence, 62 g ai/ha, scale 0 to 100
[8] = Preemergence, 125 g ai/ha, scale 0 to 100 (0 no effect, 100 complete control)
[9] = 31 g ai/ha, scale 0 (no effect) to 100 (complete control)
[10] = 62 g ai/ha, scale 0 to 100 (0 no effect, 100 complete control)
[11] = 125 g ai/ha, scale 0 to 100 (0 no effect, 100 complete control)
[12] = 250 g ai/ha, scale 0 to 100 (0 no effect, 100 complete control)

SMILES: O=C1NCC(c2ccc(C(F)(F)F)cc2)C1C(=O)Nc1ccccc1F (centres unmarked) [Compound 79, N-(2-fluorophenyl)-2-oxo-4-[4-(trifluoromethyl)phenyl]-3-pyrrolidinecarboxamide]
- pest or weed control at 125 g/ha (barnyardgrass [1]; post-emergence, Postemergence): 80%
- pest or weed control at 500 g/ha (barnyardgrass [1]; post-emergence, Postemergence): 90%
- pest or weed control at 500 g/ha (barnyardgrass [1]; pre-emergence, preemergence): 90%
- Barnyardgrass plant response rating (barnyardgrass [1]): 80
- Plant response rating, Sedge, Umbrella (sedge, umbrella): 0
- Plant response rating, Barnyardgrass (barnyardgrass [2]): 0
- Plant response rating, Blackgrass (blackgrass; [3]): 0
- Plant response rating, Blackgrass (blackgrass; [4]): 0
- Plant response rating, Blackgrass (blackgrass; [5]): 0
- Plant response rating, Blackgrass (blackgrass; [6]): 5
- Blackgrass plant response rating (blackgrass; Preemergence, 31 g ai/ha): 0
- Plant response rating, Blackgrass (blackgrass; [7]): 65
- Plant response rating, Blackgrass (blackgrass; [8]): 85
- Plant response rating (scale of 0 to 100), Blackgrass (blackgrass; Preemergence, 250 g ai/ha): 85
- Plant response rating, Wheat (wheat (winter wheat); [3]): 0
- Plant response rating, Wheat (wheat (winter wheat); [4]): 0
- Plant response rating, Wheat (wheat (winter wheat); [5]): 0
- Plant response rating, Wheat (wheat (winter wheat); [6]): 0
- Wheat plant response rating (wheat (winter wheat); Preemergence, 31 g ai/ha): 10
- Plant response rating, Wheat (wheat (winter wheat); [7]): 40
- Plant response rating, Wheat (wheat (winter wheat); [8]): 60
- Plant response rating (scale of 0 to 100), Wheat (wheat (winter wheat); Preemergence, 250 g ai/ha): 75
- Plant response rating, Corn (corn; [3]): 0
- Plant response rating, Corn (corn; [4]): 0
- Plant response rating, Corn (corn; [5]): 0
- Plant response rating, Corn (corn; [6]): 0
- Corn plant response rating (corn; Preemergence, 31 g ai/ha): 0
- Plant response rating, Corn (corn; [7]): 0
- Plant response rating, Corn (corn; [8]): 10
- Plant response rating (scale of 0 to 100), Corn (corn; Preemergence, 250 g ai/ha): 30
- Plant response rating, Crabgrass, Large (crabgrass, large; [3]): 5
- Plant response rating, Crabgrass, Large (crabgrass, large; [4]): 5
- Plant response rating, Crabgrass, Large (crabgrass, large; [5]): 65
- Plant response rating, Crabgrass, Large (crabgrass, large; [6]): 75
- Crabgrass, Large plant response rating (crabgrass, large; Preemergence, 31 g ai/ha): 95
- Plant response rating, Crabgrass, Large (crabgrass, large; [7]): 98
- Plant response rating, Crabgrass, Large (crabgrass, large; [8]): 100
- Plant response rating (scale of 0 to 100), Crabgrass, Large (crabgrass, large; Preemergence, 250 g ai/ha): 100
- Plant response rating, Lambsquarters (lambsquarters; [3]): 25
- Plant response rating, Lambsquarters (lambsquarters; [4]): 50
- Plant response rating, Lambsquarters (lambsquarters; [5]): 85
- Plant response rating, Lambsquarters (lambsquarters; [6]): 85
- Lambsquarters plant response rating (lambsquarters; Preemergence, 31 g ai/ha): 90
- Plant response rating, Lambsquarters (lambsquarters; [7]): 90
- Plant response rating, Lambsquarters (lambsquarters; [8]): 90
- Plant response rating (scale of 0 to 100), Lambsquarters (lambsquarters; Preemergence, 250 g ai/ha): 90
- Plant response rating, Soybean (soybean; [3]): 0
- Plant response rating, Soybean (soybean; [4]): 0
- Plant response rating, Soybean (soybean; [5]): 10
- Plant response rating, Soybean (soybean; [6]): 10
- Soybean plant response rating (soybean; Preemergence, 31 g ai/ha): 0
- Plant response rating, Soybean (soybean; [7]): 0
- Plant response rating, Soybean (soybean; [8]): 0
- Plant response rating (scale of 0 to 100), Soybean (soybean; Preemergence, 250 g ai/ha): 0
- Plant response rating, Oat, Wild (oat, wild; [9]): 0
- Plant response rating, Oat, Wild (oat, wild; [10]): 0
- Plant response rating, Oat, Wild (oat, wild; [11]): 0
- Plant response rating, Oat, Wild (oat, wild; [12]): 0
- Plant response rating, Velvetleaf (velvetleaf; [3]): 0
- Plant response rating, Velvetleaf (velvetleaf; [4]): 0
- Plant response rating, Velvetleaf (velvetleaf; [5]): 0
- Plant response rating, Velvetleaf (velvetleaf; [6]): 0
- Velvetleaf plant response rating (velvetleaf; Preemergence, 31 g ai/ha): 0
- Plant response rating, Velvetleaf (velvetleaf; [7]): 0
- Plant response rating, Velvetleaf (velvetleaf; [8]): 20
- Plant response rating (scale of 0 to 100), Velvetleaf (velvetleaf; Preemergence, 250 g ai/ha): 35

SMILES: O=C1NCC(c2ccc(C(F)(F)F)cc2)C1C(=O)Nc1cccc(F)c1F (centres unmarked) [Compound 80, N-(2,3-difluorophenyl)-2-oxo-4-[4-(trifluoromethyl)phenyl]-3-pyrrolidinecarboxamide]
- pest or weed control at 125 g/ha (barnyardgrass [1]; post-emergence, Postemergence): 80%
- pest or weed control at 500 g/ha (barnyardgrass [1]; post-emergence, Postemergence): 80%
- pest or weed control at 500 g/ha (barnyardgrass [1]; pre-emergence, preemergence): 80%
- Barnyardgrass plant response rating (barnyardgrass [1]): 80
- Plant response rating, Sedge, Umbrella (sedge, umbrella): 0
- Plant response rating, Barnyardgrass (barnyardgrass [2]): 30
- Plant response rating, Blackgrass (blackgrass; [3]): 0
- Plant response rating, Blackgrass (blackgrass; [4]): 0
- Plant response rating, Blackgrass (blackgrass; [5]): 0
- Plant response rating, Blackgrass (blackgrass; [6]): 5
- Blackgrass plant response rating (blackgrass; Preemergence, 31 g ai/ha): 30
- Plant response rating, Blackgrass (blackgrass; [7]): 80
- Plant response rating, Blackgrass (blackgrass; [8]): 85
- Plant response rating (scale of 0 to 100), Blackgrass (blackgrass; Preemergence, 250 g ai/ha): 90
- Plant response rating, Wheat (wheat (winter wheat); [3]): 0
- Plant response rating, Wheat (wheat (winter wheat); [4]): 0
- Plant response rating, Wheat (wheat (winter wheat); [5]): 0
- Plant response rating, Wheat (wheat (winter wheat); [6]): 0
- Wheat plant response rating (wheat (winter wheat); Preemergence, 31 g ai/ha): 0
- Plant response rating, Wheat (wheat (winter wheat); [7]): 5
- Plant response rating, Wheat (wheat (winter wheat); [8]): 80
- Plant response rating (scale of 0 to 100), Wheat (wheat (winter wheat); Preemergence, 250 g ai/ha): 80
- Plant response rating, Corn (corn; [3]): 0
- Plant response rating, Corn (corn; [4]): 5
- Plant response rating, Corn (corn; [5]): 5
- Plant response rating, Corn (corn; [6]): 10
- Corn plant response rating (corn; Preemergence, 31 g ai/ha): 0
- Plant response rating, Corn (corn; [7]): 0
- Plant response rating, Corn (corn; [8]): 0
- Plant response rating (scale of 0 to 100), Corn (corn; Preemergence, 250 g ai/ha): 65
- Plant response rating, Crabgrass, Large (crabgrass, large; [3]): 5
- Plant response rating, Crabgrass, Large (crabgrass, large; [4]): 40
- Plant response rating, Crabgrass, Large (crabgrass, large; [5]): 65
- Plant response rating, Crabgrass, Large (crabgrass, large; [6]): 75
- Crabgrass, Large plant response rating (crabgrass, large; Preemergence, 31 g ai/ha): 95
- Plant response rating, Crabgrass, Large (crabgrass, large; [7]): 98
- Plant response rating, Crabgrass, Large (crabgrass, large; [8]): 98
- Plant response rating (scale of 0 to 100), Crabgrass, Large (crabgrass, large; Preemergence, 250 g ai/ha): 100
- Plant response rating, Lambsquarters (lambsquarters; [3]): 55
- Plant response rating, Lambsquarters (lambsquarters; [4]): 55
- Plant response rating, Lambsquarters (lambsquarters; [5]): 60
- Plant response rating, Lambsquarters (lambsquarters; [6]): 70
- Lambsquarters plant response rating (lambsquarters; Preemergence, 31 g ai/ha): 40
- Plant response rating, Lambsquarters (lambsquarters; [7]): 85
- Plant response rating, Lambsquarters (lambsquarters; [8]): 90
- Plant response rating (scale of 0 to 100), Lambsquarters (lambsquarters; Preemergence, 250 g ai/ha): 90
- Plant response rating, Soybean (soybean; [3]): 0
- Plant response rating, Soybean (soybean; [4]): 5
- Plant response rating, Soybean (soybean; [5]): 5
- Plant response rating, Soybean (soybean; [6]): 25
- Soybean plant response rating (soybean; Preemergence, 31 g ai/ha): 0
- Plant response rating, Soybean (soybean; [7]): 0
- Plant response rating, Soybean (soybean; [8]): 0
- Plant response rating (scale of 0 to 100), Soybean (soybean; Preemergence, 250 g ai/ha): 0
- Plant response rating, Oat, Wild (oat, wild; [9]): 0
- Plant response rating, Oat, Wild (oat, wild; [10]): 0
- Plant response rating, Oat, Wild (oat, wild; [11]): 0
- Plant response rating, Oat, Wild (oat, wild; [12]): 0
- Plant response rating, Velvetleaf (velvetleaf; [3]): 15
- Plant response rating, Velvetleaf (velvetleaf; [4]): 15
- Plant response rating, Velvetleaf (velvetleaf; [6]): 25
- Velvetleaf plant response rating (velvetleaf; Preemergence, 31 g ai/ha): 0
- Plant response rating, Velvetleaf (velvetleaf; [7]): 30
- Plant response rating, Velvetleaf (velvetleaf; [8]): 35
- Plant response rating (scale of 0 to 100), Velvetleaf (velvetleaf; Preemergence, 250 g ai/ha): 50
